Common to all, as to type: cell-based
For test [1], the system named is human breast cancer cell line T-47D. The test can be described thus: Caspase cascade activation (DEVD-R110 fluorogenic substrate) in T-47D cells. The settings on record: Homo sapiens, T47D, 24 h, read-out: Caspase Activation Potency EC50 (nM) (24 h) T-47D. As for the experimental part:
(§1) Human breast cancer cell line T-47D, human lung cancer cell line H1299 and human hepatocellular carcinoma cell line SNU398 were grown according to media component mixtures designated by American Type Culture Collection+10% FCS (Invitrogen Corporation), in a 5% CO2-95% humidity incubator at 37° C. T-47D and H1299 cells were maintained at a cell density between 50 and 80% confluency at a cell density of 0.1 to 0.6×10^6 cells/mL. Cells were harvested at 600×g and resuspended at 0.65×10^6 cells/mL into appropriate media+10% FCS. An aliquot of 22.5 μL of cells was added to a well of a 384-well microtiter plate containing 2.5 μL of a 10% DMSO in RPMI-1640 media solution containing 0.16 to 100 μM of N-(4-methoxyphenyl)-N, 2-dimethylthieno[3,2-d]pyrimidin-4-amine or other test compound (0.016 to 10 μM final). An aliquot of 22.5 μL of cells was added to a well of a 384-well microtiter plate containing 2.5 μL of a 10 % DMSO in RPMI-1640 media solution without test compound as the control sample. The samples were mixed by agitation and then incubated at 37° C. for 24 h or 48 h in a 5% CO2-95% humidity incubator. After incubation, the samples were removed from the incubator and 25 μL of a solution containing 14 μM of N-(Ac-DEVD)-N′-ethoxycarbonyl-R110 (SEQ ID No.:1) fluorogenic substrate (Cytovia, Inc.; WO99/18856), 20% sucrose (Sigma), 20 mM DTT (Sigma), 200 mM NaCI (Sigma), 40 mM Na PIPES buffer pH 7.2 (Sigma), and 500 μg/mL lysolecithin (Calbiochem) was added. The samples were mixed by agitation and incubated at room temperature. Using a fluorescent plate reader (Model SPECTRAfluor Plus, Tecan), an initial reading (T=0) was made approximately 1-2 min after addition of the substrate solution, employing excitation at 485 nm and emission at 530 nm, to determine the background fluorescence of the control sample. After the 3 h incubation, the samples were read for fluorescence as above (T=3 h).
(§2) The Relative Fluorescence Unit values (RFU) were used to calculate the sample readings as follows: RFU(T=3h)-Control RFU(T=0)=Net RFU(T=3h)
(§3) The activity of caspase cascade activation was determined by the ratio of the net RFU value for N-(4-methoxyphenyl)-N,2-dimethylthieno[3,2-d]pyrimidin-4-amine or other test compound to that of control samples. The EC50 (nM) was determined by a sigmoidal dose-response calculation (Prism 3.0, GraphPad Software Inc.).

The test system of test [2] is multi-drug resistant (MDR) human sarcoma cell line MES-SA/ADR. The test can be described thus: Inhibition of cell proliferation (GI50) in MES-SA/ADR cells. As for the experimental part: (§4) T-47D, HT29, H1299, MX-1 and MDAMB435 cells were grown and harvested as in Example 29. An aliquot of 90 μL of cells (4.4×10^4 cells/mL) was added to a well of a 96-well microtiter plate containing 5 μL of a 10% DMSO in RPMI-1640 media solution containing 10 nM to 100 μM of N-(4-methoxyphenyl)-N,2-dimethylthieno[2,3-d]pyrimidin-4-amine (1 nM to 10 μM final) or related compounds. An aliquot of […] of cells was added to a well of a 96-well microtiter plate containing 5 μL of a 10% DMSO in RPMI-1640 media solution without compound as the control sample for maximal cell proliferation (LMax). The samples were mixed by agitation and then incubated at 37° C. for 48 h in a 5% CO2-95% humidity incubator. After incubation, the samples were removed from the incubator and 25 μL of CellTiter-Glo™ reagent (Promega) was added. The samples were mixed by agitation and incubated at room temperature for 10-15 min. Plates were then read using a luminescent plate reader (Model SPECTRAfluor Plus, Tecan) to give Ltest values.
(§5) The samples were mixed by agitation and then incubated at 37° C. for 0.5 h in a 5% CO2-95% humidity incubator. After incubation, the samples were removed from the incubator and 25 μL of CellTiter-Glo™ reagent (Promega) was added. The samples were mixed by agitation and incubated at […] room temperature in a 5% CO2-95% humidity incubator. […] was read as above, (Lstart) defining luminescence for initial cell number used as baseline in GI50 determinations. ps Calculation:
(§6) GI50 (dose for 50% inhibition of cell proliferation) is the concentration where [(LTest-LStart)/(LMax-LStart)]=0.5.
(§7) Several compounds were tested in other cancer cell lines, including human sarcoma cell line MES-SA and multi-drug resistant (MDR) human sarcoma cell line MES-SA/ADR, murine leukemia cell line P388 and multi-drug resistant (MDR) murine leukemia cell line P388ADR, and the data are summarized in Table IV.

The subject of test [3] is human sarcoma cell line MES-SA. The test can be described thus: Inhibition of cell proliferation (GI50) in MES-SA cells. As for the experimental part:
as §4, §5, §6, §7

The test system of test [4] is human lung cancer cell line H1299. The test is described as follows: Caspase cascade activation (DEVD-R110 fluorogenic substrate) in H1299 cells. The settings on record: Homo sapiens, NCI-H1299, 24 h, read-out: Caspase Activation Potency EC50 (nM) (24 h) H1299. As for the experimental part: as §1, §2, §3
The test system of test [5] is human B cell lymphoblastoid cell line Ramos. The test is described as follows: Caspase cascade activation in Ramos cells. To be noted: 48 h, read-out: Caspase Activation Potency EC50 (nM) (48 h) Ramos. As for the experimental part: (§8) Human breast cancer cell line T-47D, human lung cancer cell line H1299 and human hepatocellular carcinoma cell line SNU398 were grown according to media component mixtures designated by American Type Culture Collection+10% FCS (Invitrogen Corporation), in a 5% CO2-95% humidity incubator at 37° C. T-47D and H1299 cells were maintained at a cell density between 50 and 80% confluency at a cell density of 0.1 to 0.6×10^6 cells/mL. Cells were harvested at 600×g and resuspended at 0.65×10^6 cells/mL into appropriate media+10% FCS. […] Using a fluorescent plate reader (Model SPECTRAfluor Plus, Tecan), an initial reading (T=0) was made approximately 1-2 min after addition of the substrate solution, employing excitation at 485 nm and emission at 530 nm, to determine the background fluorescence of the control sample. After the 3 h incubation, the samples were read for fluorescence as above (T=3 h).
as §2
(§9) The activity of caspase cascade activation was determined by the ratio of the net RFU value for N-(4-methoxyphenyl)-N,2-dimethylthieno[3,2-d]pyrimidin-4-amine or other test compound to that of control samples. The EC50 (nM) was determined by a sigmoidal dose-response calculation (Prism 3.0, GraphPad Software Inc.). […]

Test [6] concerns murine leukemia cell line P388. The test can be described thus: Inhibition of cell proliferation (GI50) in P388 cells. On the procedure: as §4, §5, §6, §7
The test system of test [7] is multi-drug resistant (MDR) murine leukemia cell line P388ADR. The test can be described thus: Inhibition of cell proliferation (GI50) in P388/ADR cells. On the procedure:
as §4, §5, §6, §7

Test [8] relates to human Burkitt's lymphoma cell line Namalwa. The test can be described thus: Caspase cascade activation in Namalwa cells. The settings on record: Burkitts lymphoma cell, 48 h, read-out: Caspase Activation Potency EC50 (nM) (48 h) Namalwa. On the procedure: as §8, §2, §9
In test [9] the test system is cervical cancer cell line HeLa. The test can be described thus: Caspase cascade activation in HeLa cells. The settings on record: Homo sapiens, 48 h, read-out: Caspase Activation Potency EC50 (nM) (48 h) HeLa. As for the experimental part:
as §8, §2, §9

The test system of test [10] is human hepatocellular carcinoma cell line SNU398. The test is described as follows: Caspase cascade activation (DEVD-R110 fluorogenic substrate) in SNU398 cells. The settings on record: Homo sapiens, SNU-398. On the procedure: as §1, §2, §3
Several compounds were also tested in other cancer cells lines (48 h assay), including human hepatocellular carcinoma cell line SNU398, human colon carcinoma cell line […], human B cell lymphoblastoid cell line Ramos, human Burkitt's lymphoma cell line Namalwa, and cervical cancer cell line HeLa, and the data are summarized in Table II.

A further test has as its system HCT116. The test is described as follows: Caspase cascade activation in HCT116 cells. The settings on record: Homo sapiens, HCT-116; HCT116, 48 h; read-out: Caspase Activation Potency EC50 (nM) (48 h) HCT116. As for the experimental part: as §8, §2, §9
Test [11] relates to human lymphoma cell line Raji. The test is described as follows: Caspase cascade activation in Raji cells. The settings on record: 48 h, read-out: Caspase Activation Potency EC50 (nM) (48 h) Raji. As for the experimental part: as §8, §2, §9

Read-outs that look alike come from different tables or passages of the source.

With `COc1ccc(N(C)c2nc(C)nc3sccc23)cc1.Cl` [Example 5, N-(4-Methoxyphenyl)-N,2-dimethylthieno[2,3-d]pyrimidin-4-amine hydrochloride], the EC50 in [1] amounted to 8 nM; in test [4] it was 14 nM; in [5], 27 nM; in test [8], 20 nM; in [9], 8 nM; in test [10] (SNU398, 24 h, read-out: Caspase Activation Potency EC50 (nM) (24 h) SNU398), 12 nM. In addition, the concentration for a half-maximal effect (EC50) in [10] (SNU398, 48 h, read-out: Caspase Activation Potency EC50 (nM) (48 h) SNU398) amounted to 9 nM; with HCT116, 27 nM; in test [11], 20 nM. The “GI50 in Multi-Cancer Cells EC50 (nM) MES-SA/ADR” value in test [2] came out at 5 nM. In [3], the “GI50 in Multi-Cancer Cells EC50 (nM) MES-SA” value was found to be 3 nM. The “GI50 in Multi-Cancer Cells EC50 (nM) P388” value in test [6] is listed as 7 nM. For the same compound, the “GI50 in Multi-Cancer Cells EC50 (nM) P388/ADR” value in test [7] was determined as 4 nM.

The values above are taken from patent US20070213305A1, “N-alkyl-N-aryl-thienopyrimidin-4-amines and analogs as activators of caspases and inducers of apoptosis and the use thereof” (Cytovia, Inc., priority 2005, published 2007).
